Experimental data: ChEMBL document CHEMBL1134574, “Synthesis and characterization of non-steroidal ligands for the glucocorticoid receptor: selective quinoline derivatives with prednisolone-equivalent functional activity” (J Med Chem, 2001)

Tests used:
Progesterone receptor = biological target: T1, Progesterone receptor (Homo sapiens, UniProt P06401); assay: Binding affinity for progesterone receptor
T1 sequence (P06401 whole entry): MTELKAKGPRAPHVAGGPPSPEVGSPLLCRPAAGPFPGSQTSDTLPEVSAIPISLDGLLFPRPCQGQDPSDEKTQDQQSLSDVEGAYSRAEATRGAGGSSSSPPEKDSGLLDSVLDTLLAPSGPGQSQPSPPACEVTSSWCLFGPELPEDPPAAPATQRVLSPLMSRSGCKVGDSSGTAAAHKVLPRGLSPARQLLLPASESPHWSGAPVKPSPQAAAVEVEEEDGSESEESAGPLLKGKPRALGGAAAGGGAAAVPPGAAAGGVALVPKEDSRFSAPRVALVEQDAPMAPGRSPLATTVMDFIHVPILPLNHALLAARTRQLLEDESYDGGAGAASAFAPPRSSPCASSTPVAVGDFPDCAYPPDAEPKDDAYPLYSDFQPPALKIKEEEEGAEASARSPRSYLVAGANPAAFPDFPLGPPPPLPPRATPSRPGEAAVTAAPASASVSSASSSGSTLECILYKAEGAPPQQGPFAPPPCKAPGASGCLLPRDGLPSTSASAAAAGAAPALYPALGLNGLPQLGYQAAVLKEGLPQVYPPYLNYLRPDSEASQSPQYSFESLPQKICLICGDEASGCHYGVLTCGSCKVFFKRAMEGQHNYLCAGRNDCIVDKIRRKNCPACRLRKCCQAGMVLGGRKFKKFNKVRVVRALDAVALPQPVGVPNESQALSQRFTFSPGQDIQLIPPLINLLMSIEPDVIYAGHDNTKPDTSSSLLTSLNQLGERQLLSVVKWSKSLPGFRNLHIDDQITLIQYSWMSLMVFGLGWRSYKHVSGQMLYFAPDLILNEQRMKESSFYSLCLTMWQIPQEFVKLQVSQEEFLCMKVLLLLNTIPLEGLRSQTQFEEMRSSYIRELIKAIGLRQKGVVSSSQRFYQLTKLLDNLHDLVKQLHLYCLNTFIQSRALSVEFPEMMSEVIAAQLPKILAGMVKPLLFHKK

Androgen receptor = biological target: T2, Androgen receptor (Homo sapiens, UniProt P10275); assay: Binding affinity for androgen receptor
T2 sequence (P10275 whole entry): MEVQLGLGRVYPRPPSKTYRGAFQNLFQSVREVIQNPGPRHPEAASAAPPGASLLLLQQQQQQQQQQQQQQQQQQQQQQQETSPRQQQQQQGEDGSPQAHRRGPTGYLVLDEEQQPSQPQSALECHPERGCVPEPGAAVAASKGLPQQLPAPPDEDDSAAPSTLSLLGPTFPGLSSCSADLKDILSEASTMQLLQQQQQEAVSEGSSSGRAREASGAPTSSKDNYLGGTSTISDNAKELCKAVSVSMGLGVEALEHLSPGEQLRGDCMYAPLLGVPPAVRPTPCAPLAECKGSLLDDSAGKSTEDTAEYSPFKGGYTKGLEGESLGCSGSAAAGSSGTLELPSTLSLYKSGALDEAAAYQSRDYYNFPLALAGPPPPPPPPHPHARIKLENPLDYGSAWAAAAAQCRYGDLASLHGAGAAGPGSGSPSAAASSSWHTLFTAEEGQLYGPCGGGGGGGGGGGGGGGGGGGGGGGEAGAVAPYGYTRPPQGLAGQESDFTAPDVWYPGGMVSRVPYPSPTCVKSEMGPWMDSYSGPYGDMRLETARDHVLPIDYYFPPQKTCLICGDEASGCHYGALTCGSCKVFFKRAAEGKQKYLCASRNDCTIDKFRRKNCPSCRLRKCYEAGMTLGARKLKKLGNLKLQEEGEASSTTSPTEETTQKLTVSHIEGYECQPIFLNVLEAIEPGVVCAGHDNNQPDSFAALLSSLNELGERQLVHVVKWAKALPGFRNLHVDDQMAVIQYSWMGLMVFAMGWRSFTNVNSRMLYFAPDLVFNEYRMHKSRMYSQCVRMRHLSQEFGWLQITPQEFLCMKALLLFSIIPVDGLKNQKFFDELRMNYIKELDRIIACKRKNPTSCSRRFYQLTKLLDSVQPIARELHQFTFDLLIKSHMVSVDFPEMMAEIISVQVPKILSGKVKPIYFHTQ

Estrogen receptor = Estrogen receptor (Homo sapiens, UniProt Q92731+P03372); assay: Binding affinity for estrogen receptor; assay type: protein assay
Glucocorticoid receptor = biological target: T3, Glucocorticoid receptor (Homo sapiens, UniProt P04150); assay: Repression activity of GR ligand with interleukin-6 receptor in native cell assay using Dexamethasone was determined as maximal potency; assay type: functional
T3 sequence (P04150 whole entry): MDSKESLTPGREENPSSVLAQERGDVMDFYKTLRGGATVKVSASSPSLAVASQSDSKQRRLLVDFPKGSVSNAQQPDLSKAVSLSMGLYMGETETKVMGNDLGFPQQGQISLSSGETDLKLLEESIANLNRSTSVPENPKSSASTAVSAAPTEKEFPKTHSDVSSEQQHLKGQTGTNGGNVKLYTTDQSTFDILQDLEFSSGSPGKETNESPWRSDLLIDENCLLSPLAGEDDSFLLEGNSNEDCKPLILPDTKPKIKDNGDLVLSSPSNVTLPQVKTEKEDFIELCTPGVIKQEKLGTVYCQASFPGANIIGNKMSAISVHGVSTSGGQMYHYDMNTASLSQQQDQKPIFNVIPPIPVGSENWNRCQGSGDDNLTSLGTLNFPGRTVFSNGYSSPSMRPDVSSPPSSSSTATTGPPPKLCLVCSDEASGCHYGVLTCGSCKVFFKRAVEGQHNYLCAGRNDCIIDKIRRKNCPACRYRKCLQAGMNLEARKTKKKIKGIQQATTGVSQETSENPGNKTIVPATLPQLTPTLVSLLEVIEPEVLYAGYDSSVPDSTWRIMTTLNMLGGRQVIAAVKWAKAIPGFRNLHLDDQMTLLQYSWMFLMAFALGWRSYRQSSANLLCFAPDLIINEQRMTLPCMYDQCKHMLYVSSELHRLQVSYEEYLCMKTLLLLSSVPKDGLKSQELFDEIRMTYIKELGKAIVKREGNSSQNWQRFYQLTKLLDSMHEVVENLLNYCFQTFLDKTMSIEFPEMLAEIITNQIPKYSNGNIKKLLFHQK

## COc1cccc2c1-c1ccc3c(c1C(c1cccc(OCSC)c1)O2)C(C)=CC(C)(C)N3 (centres undefined)
Progesterone receptor
  Ki: > 5000 nM
Androgen receptor
  Ki: 3120 nM
Estrogen receptor
  Ki: > 1000 nM
Glucocorticoid receptor
  IC50: 16 nM
